Results reported in US7666393B2, “Methods for assessing antiangiogenic agents” (Children's Medical Center Corporation, priority 2001, dated 2010).

What was measured:
CAM vascularization = details: in vivo; cited from earlier work
[1] = tested on: Human peripheral blood mononuclear cells (PBMNC); test: In vitro formation of colonies from human peripheral blood mononuclear cells (EPC differentiation assay); format: cell-based; details: medium with bFGF and VEGF, 6 days culture after addition
Protocol: Human peripheral blood mononuclear cells (PBMNC) were purified over Ficoll gradient and seeded onto non-treated plastic dish for 24 hr. Non. adherent cells were, transferred to a gelatin coated 48 well dish in medium containing basic fibroblast growth factor (BFGF) and VEGF. Angiostatin and endostatin were added to the medium 24 hours later and cells were cultured for additional 6 days. At the end of the experiment the colonies were fixed with ethanol, stained with methyl-methylene blue and counted (FIGS. 1A-C). […] There was no difference in the effects of angiostatin between the two concentrations used. […] Taken together, it appears that angiostatin and endostatin block the differentiation of EC from their circulating progenitors.

EPC [2] = test: VEGF-induced mobilization of EPC in mice (PBMNC colonies from peripheral blood); format: in vivo
Protocol: PBMNC from 1 ml of peripheral mouse blood were plated in medium containing bFGF and VEGF (FIG. 2A). […] Similar results were obtained with peripheral blood from mice, which were injected with microencapsulated cells producing endostatin (approximately 0.5×10^6 cells per mice) (Joki et al., 2001) (FIG. 2D). In order to elevate the number of EPC in the blood, the mice received injection of 0.5×10^6 cells producing VEGF, that were micro-encapsulated similar to the endostatin producing cells (FIGS. 2B-C).
PBMNC from VEGF injected mice were further analyzed by immunostaining in order to confirm their identity. Blood-derived cells were stained positively for VEGF-R2 (Flk-1), CD-31, BS-1 (a lectin specifically expressed on mouse EC) and for von-Wilerband factor (F.VIII). Only a few cells were stained positively for CD-14, a marker for macrophages. […] Furthermore, this in vivo effect of endostatin can be seen only if the starting number of EPC in the blood is high as a result of the VEGF treatment.

EPC [3] = test: EPC in peripheral blood of cancer patients undergoing endostatin treatment (P1H12-positive cells); format: in vivo, human; details: for percentage of EPC: about 240 mg/m^3 daily
Protocol: Recombinant human Endostatin (rhEndostatin, Endostatin™ EntreMed, Inc, Rockville, Md.) is under investigation in clinical Phase I trials in patients with advanced, refractory cancers. Twenty eight patients, age ranging from 28 to 72 years old with various types of cancer such as breast, colorectal and soft tissue sarcoma, participated in a phase I clinical trial at the Dana Farber Cancer Institute in Boston. We obtained blood samples from 7 patients that were treated with endostatin. The response of EPC to rhEndostatin differed between patients in accordance with differing clinical courses. The first group consisted of 4 patients with slowly progressive, stable or decreasing cancers that were followed with samples for 130-250 days (FIG. 6A). The second group consisted of patients with faster progressing cancer unaffected by rhEndostatin administration. This group was followed during 30 days of endostatin treatment (FIG. 6B). PBMNC were purified from the blood over “Ficoll” gradient and cells corresponding to 0.5 or 1 ml of blood were placed in a “Cytospin” tube. The cells were loaded onto glass slides, fixed and immuno-stained with FITC-conjugated P1H12 antibodies. Cell nuclei were stained with DAPI. The number of P1H12-positive cells was calculated as percentage of total PBMNC. EPC percentage varied among patients and was between 1.8-3.5%. […] Patients from the first group were initially administered with daily intravenous injections of 60 mg/m^3 endostatin. […] The administration of endostatin was later changed to continuous infusion (60 mg/m^3/day).
The second group of patients were at the beginning of endostatin treatment (daily IVB injections of about to 240 mg/m^3). The initial amount of EPC in this group varied between 0.4-1.6%. […] In these patients only 2-3 measurements of EPC were available because of rapid disease progression. […] On the other hand, minor response or stable disease progression upon endostatin administration was associated with reduction in the number EPC in peripheral blood, whereas an increase in EPC was associated with rapid disease progression.

EPC [4] = test: Tumor-induced mobilization of EPC in SCID mice bearing HS-VF tumors; format: in vivo; details: 7 days
Protocol: Many tumors secrete high levels of VEGF that can promote differentiation and mobilization of EPC. To test the effects of endostatin on tumor-induced mobilization of EPC, SCID mice (5 per group) were first injected subcutaneously with human pancreatic tumor cells (HS-VF cell, 2×10^6 cells/mouse) overexpressing VEGF. Eight days later half of the mice were implanted with “Alzet” osmotic pumps releasing murine endostatin (8-12 mg/kg/day) and the other half with pumps releasing saline. SCID mice that were not injected with tumor cells or pumps (normal SCID mice) served as a control to measure the number of EPC. After seven days, mice were sacrificed and blood samples were collected.
PBMNC were purified over “Ficoll” gradient and cells corresponding to 0.5 ml of blood were placed in a “Cytospin” tube. The cells were loaded onto glass slides, fixed and immunostained with MECA-32 antibodies, that specifically detect murine EC. The staining was developed with FITC-labeled (green) secondary antibodies and cell nuclei were stained with DAPI (blue). The proportion of MECA-32 positive cells from total PBMNC was calculated and shown in the graph of FIG. 4A.
Control mice had 0.29% MECA-32 positive cells in the PBMNC preparation. […]

For CO[C@@H]1[C@H](OC(=O)NC(=O)CCl)CC[C@]2(CO2)[C@H]1[C@@]1(C)O[C@@H]1CC=C(C)C [TNP-470, reference compound], the CAM vascularization (CAM vascularization) is given as “greatly inhibit”.

In the case of angiostatin, the “formation of PBMNC colonies” value ([1]; 2 μg/ml) is listed as “completely blocked”, the “formation of PBMNC colonies” value ([1]; 10 μg/ml) is listed as “completely blocked” and the CAM vascularization (CAM vascularization) is listed as “greatly inhibit”.

For “vascular endothelial growth factor [VEGF, reference compound]”, the “colonies from PBMNC of peripheral mouse blood” value (EPC [2]; mice injected with 0.5×10^6 microencapsulated cells producing VEGF) was “Large number of colonies”.

In the case of endostatin, the “formation of PBMNC colonies” value ([1]; 2 μg/ml) is reported as “the number of colonies grew but the colonies were small and contained small round cells”, the “formation of PBMNC colonies” value ([1]; 10 μg/ml) is reported as “significantly lower than the control experiment” and the “number of EPC (P1H12-positive cells, percentage of total PBMNC)” value (EPC [3]; one patient of the first group, continuous infusion 60 mg/m^3/day, 130 days) is reported as “not increased”. The “percentage of EPC” value (EPC [3]; patient 13, faster progressing cancer, increased from 0.4% during 15 days of administration) was 3.8%, the “percentage of EPC” value (EPC [3]; patient #11, faster progressing cancer, increased from 1.6% during 30 days of administration) was 5.3% and the EPC percentage (EPC [3]; patient #12, faster progressing cancer, daily IVB injections of about 240 mg/m^3, first 15 days) was “did not change significantly”. The “number of EPC (P1H12-positive cells, percentage of total PBMNC)” value (EPC [3]; patients #1, #2 and #3, continuous infusion 60 mg/m^3/day) was “further lowered”, the “number of EPC (P1H12-positive cells, percentage of total PBMNC)” value (EPC [3]; patients #2 and #3, slowly progressing cancer, daily intravenous injections of 60 mg/m^3) was “gradually decreased” and the CAM vascularization (CAM vascularization) was “greatly inhibit”. The “colonies from PBMNC of 1 ml peripheral mouse blood” value (EPC [2]; mice injected with microencapsulated cells producing endostatin only (approx. 0.5×10^6 cells per mouse), 7 days in culture) was “no viable cell-containing colonies could be detected”, the “colonies from PBMNC of peripheral mouse blood” value (EPC [2]; mice received VEGF producing cells together with endostatin producing cells (0.5×10^6 alginate encapsulated cells of each)) was “only a few, small and round cell-containing colonies” and the “proportion of MECA-32 positive cells from total PBMNC” value (EPC [4]; Alzet pumps releasing murine endostatin 8-12 mg/kg/day, saline pumps approx. 2.5%, control mice 0.29%) was 0.67%. The “gated Flk-1 positive cells in the peripheral blood (FACS)” value (EPC [4]; pumps releasing murine endostatin 8-12 mg/kg/day, saline 0.625+/−0.19%, normal mice 0.22+/−0.04%) was 0.305+/−0.05%.
